The test system of test [1] is human monocytes differentiated into macrophages under lactic acidosis (LA-Mφ). In words: Intracellular ATP levels in macrophages under lactic acidosis. Type of test: cell-based. To be noted: 5 mM AcAc, 10 mM lactic acid, FIG. 1A. The procedure:
(§1) Peripheral blood mononuclear cells (PBMC) were obtained from healthy human volunteers (Blood collection center, Angers, France; agreement ANG-2017-01) by standard density-gradient centrifugation on lymphocyte separation medium (Eurobio, Courtaboeuf, France). CD14+ monocytes were then isolated by positive magnetic cell-sorting (Miltenyi Biotec, Bergisch Gladbach, Germany). […]
The intracellular levels of ATP in whole-cell lysates were determined with enzymatic assays (Abcam, Cambridge, UK), according to the manufacturer's instructions. ATP was quantified in (i) macrophages generated in the absence (Mφ) or presence of lactic acid (LA-Mφ) or of lactic acid and acetoacetate (LA-Mφ+AcAc), (ii) macrophages with or without depolarized mitochondria (“Depol” and “Pol” populations, respectively) isolated from day 3 LA-Mφ by flow cytometry using MitoTracker Green and MitoTracker Deep Red probes (purity>99%) and, (iii) PBMC isolated from septic shock patients (n=3) were cultured for 24 h in a medium containing 0.5 g/L glucose, supplemented with 5 mM of acetoacetate (AcAc) or with 2 g/L of glucose (Glc). […]

The test system is the same in test [2]. In words: Autophagy assessed by TEM or molecularly (LC3, p62 western blot, mRNA). Type of test: cell-based. To be noted: day 3 LA-Mφ+AcAc relative to Mφ; data not shown.
Description: as §1
Cells were lysed in Trizol reagent (Life Technologies, Thermo Fisher Scientific), and total RNA was extracted with the RNeasy Micro kit (Qiagen, Hilden, Germany) and then reverse-transcribed with the Superscript II reverse transcriptase (Life Technologies). Levels of mRNA encoding the indicated proteins were then analyzed by subjecting the cDNA obtained by reverse transcription to qPCR. Relative quantification was performed by the 2^−ΔΔCT method, with RPS18, EF1A, TBP, RPL13A and PPIA as references. Results are expressed as relative mRNA levels.
Levels of LC3-I, LC3-II, p62, β-actin, AMPKα and pAMPKα were evaluated by western blotting. […] Protein loading was assessed by probing the membrane with a rabbit anti-β-actin antibody (Abcam, Cambridge, UK). Bound antibodies were detected by incubation with 1 μg/mL peroxidase-conjugated anti-rabbit or anti-mouse IgG antibody (Life Technologies) or with an anti-AMPK Ab, with the SuperSignal West Femto system (Thermo Fisher Scientific). […]
On the technique in general: In western blotting, separated proteins are transferred to a membrane and probed.

Test [3] has as its system PBMC from septic shock patients. Nature of the test: Mitochondrial depolarization in cultured PBMC from sepsis patients. The class given is cell-based, human. The note with it: 24 h, medium with 5 mM AcAc, FIG. 4B. On the procedure:
Mitochondrial membrane potential was assessed by incubating with 10 nM MitoTracker Green and 5 nM MitoTracker DeepRed (Thermo Fisher Scientific, Waltham, MA) in PBS containing 1% (w/v) BSA in PBS (PBS/BSA) at 37° C. for 15 min. Cells were washed and incubated with 0.5 μg/mL DAPI to exclude dead cells. Flow cytometry data were acquired with a FACSCanto II flow cytometer (BD Biosciences, San Jose, CA) and analyzed with FlowJo software (Tree Star, Ashland, OR).
(§2) Peripheral blood mononuclear cells (PBMC) from septic patients and healthy subjects were purified by standard density-gradient centrifugation on lymphocyte separation medium (Eurobio, Courtaboeuf, France). PBMC were cultured for 24 h in a medium consisting of RPMI 1640 medium with L-glutamine and without glucose (Lonza, Verviers, Belgium) and supplemented with 6% FCS (Eurobio), 3% autologous plasma, 0.5 g/L glucose, 100 U/mL penicillin and 100 μg/mL streptomycin (all from Lonza) in the presence of 2 ng/mL GM-CSF (R&D Systems). In some experiments, the culture medium was supplemented with 5 mM AcAc or adjusted to 4 g/L glucose. After 24 h culture, the percentage of cells with depolarized mitochondria was assessed as described above. After 3 days of culture, intracellular ATP has been quantified as described above.

Test [4] has the same test system. Nature of the test: Apoptosis of PBMC from septic shock patients (7-AAD, Annexin-V flow cytometry). The class given is cell-based, human. To be noted: 5 mM AcAc, FIG. 4E. On the procedure: Apoptosis was assessed by flow cytometry in freshly purified PBMC or after 3-day culture with or without AcAc. Cells were labeled with 7-AAD, Annexin-V FITC and anti-CD14 APC monoclonal antibody (all from BD Biosciences, San Jose, CA) and apoptotic monocytes were defined as CD14+ Annexin-V+ cells.
as §2
(In flow cytometry, cells or beads pass a laser one at a time.)

Each structure is given as a SMILES string.

Consider `CC(=O)CC(=O)[O-].[Li+]` [AcAc, lithium acetoacetate], for which the “intracellular levels of ATP” value in test [1] is “restored the intracellular levels of ATP”. Further, the autophagy entry in test [2] was “not upregulated”. Also, the “percentage of cells with depolarized mitochondria” value in test [3] is recorded as “significantly reduced”. In addition, the “protection of patient PBMCs from death by apoptosis” value in test [4] is “drastically protects”.
